Measured values reported in PMC10522709, “Rational design and characterization of cell-selective antimicrobial peptides based on a bioactive peptide from Crocodylus siamensis hemoglobin” (Scientific Reports, 2023).
Ends that are not written are not given here.

Experiments:
[1] = test system: E. coli (ATCC25922); assay: Time-killing kinetics assay; type: cell-based, Escherichia coli
Method: The time-killing kinetics of peptide was determined as described previously by Yaraksa et al.[16] In short, E. coli (ATCC25922) and S. epidermidis (ATCC12228) cells grown overnight were diluted in the Nutrient broth to a concentration of 1 × 10^6 CFU/mL. The diluted bacterial suspension (50 µL) was incubated with the peptide solution (50 µL, final concentration = 1 × MIC or 2 × MIC) at 37 °C. 10 µL of the mixture was taken at regular time intervals (0, 15, 30, 60, 180, 360, 540 and 720 min for 1 × MIC and 0, 30, 60, 180, 360, 720, 1440, 2160 and 2880 min for 2 × MIC), diluted and cultured on nutrient agar plates for 24 h. Bacterial cells were then counted and a graph of the log CFU/mL against incubation time was plotted to evaluate the rate at which peptides kill bacterial cells.

[2] = test system: EcoRI-digested Lambda (λ) DNA; assay: Gel retardation assay; type: binding; details: 200 ng λ DNA, peptide 4, 6, 8, 16 µg/mL, 60 min, room temperature, 0.8% agarose gel
Method: DNA used for this test was Lambda (λ) DNA, which had been digested with EcoRI into fragments sized 21,226, 7421, 5804, 5643, 4878 and 3530 bp (Thermo Fisher Scientific, Waltham, MA, USA). The gel retardation assay was run by mixing 200 ng of λ DNA with different concentrations of IL15.3 at 1 × MIC (4 µg/mL), 2 × MIC (8 µg/mL), 4 × MIC (16 µg/mL) and MBC (6 µg/mL) of E. coli. The mixtures were incubated for 60 min at room temperature and subjected to electrophoresis on a 0.8% agarose gel. Gel was then stained with ViSafe Red gel stain (Vivantis, Selangor Darul Ehsan, Malaysia). Subsequently, DNA bands were photographed using G-box gel documentation (Syngene, USA).

[3] = test system: human erythrocytes; type: cell-based; details: red cells of human, 1 h
Method: Human whole blood was obtained from Blood Transfusion Center Faculty of Medicine Khon Kaen University (ethical approval number HE601010). Fresh human erythrocytes were carefully mixed with PBS (1:3) and centrifuged at 1000 × g for 2 min. The supernatant was discarded and the cell pellet was resuspended to 2% w/v in PBS. 100 µL of the resuspended erythrocytes were incubated with the peptide (10 µL, final concentrations ranging from 12.5 to 100 μg/mL, two-fold serial dilution) at 37 °C for 1 h. After the treatment, the plate was centrifuged and the supernatant was taken to determine the optical density at 415 nm using a microplate reader (ALLSHENG, Zhejiang, China). The positive control for this assay was the addition of Triton X-100 (1% v/v), which causes 100% hemolysis. The negative control was cells treated with PBS buffer only. The hemolysis activity was estimated using the equation: %hemolysis=OD415ofsample/OD415ofTritonX-100treatedcontrol×100

Question: IKHWKKVWKHAKKVL [IL15.3] was tested. Which “time to inhibit the growth kinetic rate” value ([1]; 1 × MIC, 37 °C, 1 × 10^6 CFU/mL, colony count) did it give?
Answer: The value was no more than 60 min.

Question: What about the “time to completely stop growth” value ([1]; 1 × MIC, 37 °C, colony count) of the same sequence?
Answer: The value was 180 min.

Question: And the “time to begin to inhibit growth kinetic rate” value ([1]; 2 × MIC, 37 °C, colony count)?
Answer: The value was no more than 30 min.

Question: What about the “time to fully kill the cells” value ([1]; 2 × MIC, 37 °C, colony count) of the same sequence?
Answer: Its value is no more than 180 min.

Question: What about the regrowth of cells ([1]; 2 × MIC, after 48 h) of the same sequence?
Answer: Its regrowth of cells is “did not allow the cells to regrow”.

Question: What about the “interaction with DNA (gel retardation)” value [2] of the same sequence?
Answer: Its value is “binds to λ DNA fragments”.

Question: What about the “Hemolysis concentration50 (HC50)” value [3] of the same sequence?
Answer: The value was greater than 2000 µg/mL.
